The series can be described thus: solvent given as SMILES.

The structures appear in SMILES notation.

Consider `CN(C)c1ccc(/C=C/C=C2\CC/C(=C\C=C\c3ccc(N(C)C)cc3)C2=O)cc1`, for which the emission maximum was determined as 500 nm (in C1CCCCC1); 717 nm (in CC#N); 694 nm (in CC(C)=O); 718 nm (in CC(C)O); 496 nm (in CCCCCC); 739 nm (in CCCCO). The emission maximum by setting is: (in CCCO) 740 nm; (in CCO) 744 nm; (in CCOC(C)=O) 644 nm; (in CCOCC) 586 nm; (in CN(C)C=O) 715 nm; (in CO) 735 nm. The emission maximum came to 727 nm (in CS(C)=O); 553 nm (in Cc1ccccc1); 537 nm (in ClC(Cl)(Cl)Cl); 672 nm (in ClCCl); 764 nm (in OCC(F)(F)F); 568 nm (in S=C=S). For the same molecule, the emission maximum is on record as 567 nm (in c1ccccc1) and 681 nm (in c1ccncc1).

Consider `CCCCn1c2ccc(-c3ccc4c(c3)c3c5c(ccc6ccccc65)ccc3n4CCCC)cc2c2c3c(ccc4ccccc43)ccc21`, for which the emission maximum (in ClCCl) turned out to be 437 nm.

As for `CNC1=C2C=CC=[N+]2[B-](F)(F)n2cccc21`, the emission maximum by setting is: (in C1CCCCC1) 463 nm; (in CC(C)=O) 441.5 nm; (in CCO) 439 nm; (in CCOC(C)=O) 444.5 nm; (in CO) 440 nm; (in OCC(F)(F)F) 449 nm.

Consider `COCCC1=Cc2nc1ccc1[nH]c(cc1CCOC)c1nc(ccc3[nH]c2cc3CCO)C(CCOC)=C1`, for which, for the setting “in Cc1ccccc1”, the emission maximum came to 643 nm.

With `F[B-]1(F)N(c2ccccc2)C=Cc2cccc[n+]21`, the emission maximum came to 543 nm (in C1CCCCC1); 541 nm (in C1CCOC1); 555 nm (in CC#N); 553 nm (in CCO); 539 nm (in O).

Under “in Cc1ccccc1”, `Cc1c(C)c(N2c3ccccc3CCc3ccccc32)c(C)c(C)c1-c1nc(-c2ccccc2)nc(-c2ccccc2)n1` yielded an emission maximum of 457.94 nm.

The molecule `CC(C)Nc1cc2c(cc1F)c(=O)c1cc(F)c(NC(C)C)cc1n2C(C)C` yielded an emission maximum (in CCO) of 423 nm.

`[O-][n+]1c(-c2ccccc2)cc(N2CCOCC2)nc1/C=C/c1ccccc1` came in with an emission maximum (in ClCCl) of 548 nm.

Under “in CO”, `CCOC(=O)CCCCCn1c2ccccc2c(=O)c2cc(I)ccc21` registered an emission maximum of 430 nm.

Molecule `CN(C)c1ccc2c(-c3ccc(Br)cc3)c3ccc(=[N+](C)C)cc-3oc2c1` yielded an emission maximum (in CCO) of 579 nm.

Where the note is “in ClCCl”, `Cc1cc(-c2ccc(C(C)(C)C)cc2)c2nsnc2c1-c1ccc(C(C)(C)C)cc1` yielded an emission maximum of 489 nm.

As to `O=C1CC(=O)Nc2cc(Br)ccc2N1`, the emission maximum (in CS(C)=O) is listed as 350 nm.

Regarding `CC1=[N+]2C(=C(c3ccc(C=O)cc3)c3ccc(C)n3[B-]2(F)F)C=C1c1cc2n(c1)[B-](F)(F)[N+]1=CC=CC1=C2c1c(C)cc(C)cc1C`, the emission maximum runs as follows: (in C1CCCCC1) 657 nm; (in CCOC(C)=O) 669 nm.

Where the note is “in C1COCCO1”, `COc1ccc(C2=N/C(=C\c3ccc(C#N)cc3)C(=O)O2)cc1OC` displayed an emission maximum of 489 nm.

Molecule `CCCCN(CCCC)c1ccc(C#Cc2cc(C#Cc3ccc([N+](=O)[O-])cc3)c(C#Cc3ccc([N+](=O)[O-])cc3)cc2C#Cc2ccc(N(CCCC)CCCC)cc2)cc1` had an emission maximum (in ClCCl) of 563 nm.

Turning to `CCCCn1c2ccc3ccc4ccccc4c3c2c2c3c(ccc4ccccc43)ccc21`, the emission maximum (in ClCCl) turned out to be 430 nm.

Regarding `Nc1nc2c(ncn2[C@H]2C[C@H](O)[C@@H](CO)O2)c(=O)[nH]1`, the emission maximum (in O) turned out to be 338.98 nm.

Take `Nc1ccc2c(c1)Cc1ccccc1-2`: the emission maximum runs as follows: (in C1CCCCC1) 347 nm; (in C1COCCO1) 363 nm; (in CC#N) 363 nm; (in CC(C)O) 369 nm; (in CCCCCC) 344 nm; (in CCCCCCC) 344 nm. The emission maximum amounted to 368 nm (in CCO); 360 nm (in CCOC(C)=O); 349 nm (in CCOCC); 367 nm (in CO); 353 nm (in ClCCl); 377 nm (in O).

The molecule `O=S(=O)([O-])c1ccc2c(O)cc(S(=O)(=O)[O-])cc2c1` gave an emission maximum (in O) of 385 nm.

`C[P+]1(c2ccccc2)C2=C(c3ccccc31)S(=O)(=O)c1ccccc12` (stereo unspecified): the emission maximum is, setting by setting: (in CC#N) 479 nm; (in CCO) 419 nm; (in ClCCl) 483 nm.

`Fc1nc(F)c(F)c(C#Cc2cc3c(cc2C#Cc2c(F)c(F)nc(F)c2F)OC2(CCCCC2)O3)c1F` yielded an emission maximum (in CC#N) of 460 nm.

For `Fc1ccc(-c2cc3c4c(c2)CCc2cc(-c5ccc(F)cc5)cc(c2-4)CC3)cc1`, the emission maximum is, setting by setting: (in C1CCCCC1) 374.66 nm; (in C1CCOC1) 378.18 nm; (in CC#N) 375.98 nm; (in CCCCCC) 374.51 nm; (in CCO) 375.24 nm; (in CN(C)C=O) 380.68 nm. Further, the emission maximum by setting is: (in CO) 375.1 nm; (in ClC(Cl)Cl) 379.68 nm; (in ClCCl) 378.91 nm.

For the molecule `CC(C)(C)OC(=O)N1CCN(c2ccc3c(-c4ccc(I)cc4)c4ccc(=[N+]5CCN(C(=O)OC(C)(C)C)CC5)cc-4oc3c2)CC1`, the emission maximum (in ClCCl) stood at 585 nm.

Take `Nc1nc2ccccc2[n+]([O-])n1`: the emission maximum is recorded as 478 nm (in CC#N) and 521 nm (in O).

For the molecule `CN(c1ccccc1)c1ccc(N(c2ccccc2)c2ccc3ccc4c(N(c5ccccc5)c5ccc(N(C)c6ccccc6)cc5)ccc5ccc2c3c54)cc1`, the emission maximum (in ClCCl) is 620 nm.

`COc1ccc(-n2nc(C#N)c(N3CCCCC3)n2)cc1` showed an emission maximum (in CC#N) of 415 nm.

For `COC(=O)C(Cc1ccc2oc(-c3ccc(N(C)C)cc3)nc2c1)NC(=O)OC(C)(C)C` (stereo unspecified), the emission maximum came out at 377 nm (in C1CCCCC1); 391.5 nm (in C1CCOC1); 377 nm (in C1COCCO1); 384.5 nm (in CC1CCCO1); 404.01 nm (in CC1COC(=O)O1); 395.51 nm (in CC#N). The emission maximum runs as follows: (in CC(C)=O) 394.49 nm; (in CC(C)CC(C)(C)C) 375 nm; (in CC(C)CO) 396.49 nm; (in CC(C)O) 397 nm; (in CC(C)OC(C)C) 387.51 nm; (in CC(O)CO) 408.5 nm. For the same molecule, the emission maximum was 374.5 nm (in CCC(C)CC); 374 nm (in CCCCC); 375 nm (in CCCCCC); 376 nm (in CCCCCCCCC); 377 nm (in CCCCCCCCCC); 396.49 nm (in CCCCCCCO). In addition, the emission maximum (in CCCCCCO) is 397.99 nm; the emission maximum (in CCCCCO) is 388.5 nm; the emission maximum (in CCCCO) turned out to be 399.5 nm; the emission maximum (in CCO) is recorded as 403 nm; the emission maximum (in CCOC(C)=O) worked out at 381.5 nm; the emission maximum (in CCOCC) came to 379.51 nm. Further, the emission maximum is, setting by setting: (in CN(C)C=O) 400.5 nm; (in CO) 403.5 nm; (in COCCOC) 395.51 nm; (in CS(C)=O) 408.5 nm; (in Cc1ccccc1) 374.5 nm; (in Cc1ccccc1C) 373 nm. Moreover, the emission maximum was found to be 382 nm (in ClC(Cl)Cl); 388 nm (in ClCCl); 411.51 nm (in NC=O); 398.99 nm (in OC1CCCCC1); 408.5 nm (in OCCO); 375.5 nm (in c1ccccc1).

On to `COc1ccc(C2=Cc3ccccc3P2(=O)c2ccccc2)cc1` (stereo unspecified), for which the emission maximum by setting is: (in C1CCOC1) 443 nm; (in ClCCl) 454 nm.

For `C(=C\c1ccncn1)/c1ccc(-c2ccc(N(c3ccccc3)c3ccccc3)cc2)cc1`, the emission maximum runs as follows: (in C1CCOC1) 525 nm; (in CC#N) 599 nm; (in CCCCCCC) 445 nm; (in CS(C)=O) 609 nm; (in ClCCl) 563 nm.

`c1ccc2c(c1)ccc1oc3ccc4cc5oc6ccc7ccc8oc9ccc%10ccccc%10c9c8c7c6c5cc4c3c12` yielded an emission maximum (in CC#N) of 432 nm.

Consider `c1ccc(-n2c(-c3ccc(-c4ccc5c(c4)C4(c6ccccc6-c6ccccc64)c4cc(-c6ccc(-c7nc8ccccc8n7-c7ccccc7)cc6)c6ccccc6c4-5)cc3)nc3ccccc32)cc1`, for which, where the note is “in ClC(Cl)Cl”, the emission maximum turned out to be 440 nm.

For `Ic1ccc(-c2c3ccc(=[N+]4CCCCC4)cc-3oc3cc(N4CCCCC4)ccc23)cc1`, the emission maximum stood at 592 nm (in CCO) and 590 nm (in ClCCl).

Take `c1ccc(-n2c(-c3ccc([Si](c4ccc(-c5nc6ccccc6n5-c5ccccc5)cc4)(c4ccc(-c5nc6ccccc6n5-c5ccccc5)cc4)c4ccc(-c5nc6ccccc6n5-c5ccccc5)cc4)cc3)nc3ccccc32)cc1`: the emission maximum (in ClCCl) is recorded as 363 nm.

As to `CCN(CC)c1ccc2cc(-c3cn4ccccc4n3)c(=O)oc2c1`, the emission maximum runs as follows: (in C1CCOC1) 474 nm; (in CC#N) 475 nm; (in CCO) 482 nm; (in CCOC(C)=O) 468 nm; (in CN(C)C=O) 477 nm; (in CO) 485 nm. Further, the emission maximum is listed as 482 nm (in CS(C)=O), 469 nm (in Cc1ccccc1), 471 nm (in ClC(Cl)Cl) and 478 nm (in ClCCl).

In the case of `C1=C(c2ccccc2)C=C(c2ccccc2)/C1=C/C1CCCCC1`, the emission maximum (in C1CCOC1) was determined as 420 nm.

Values taken from the Deep4Chem optical property database.
